In patent US4454291A, “N-(2-Substituted-1-oxoalkyl)-2,3-dihydro-1H-indole-2-carboxylic acid derivatives” (American Home Products Corporation, priority 1982, dated 1984):
Counter-ions that a name gives are not always drawn. Square brackets hold non-standard residues; d marks the D form. Ends that are not written are not given here. pGlu = O=C1CC[C@@H](C(=O)O)N1

Experiments:
[1] = tested on: angiotensin converting enzyme; settings: cited from earlier work
[2] = target: T1, angiotensin converting enzyme (Oryctolagus cuniculus, UniProt P12822); assay: In vitro assay for angiotensin converting enzyme inhibition utilizing rabbit lung extract (Cushman et al.), hippuryl-L-histidyl-L-leucine substrate; assay type: biochemical
T1 construct: utilizing the rabbit lung extract; from tissue; host or cells: rabbit lung extract
T1 sequence (P12822 34-1310): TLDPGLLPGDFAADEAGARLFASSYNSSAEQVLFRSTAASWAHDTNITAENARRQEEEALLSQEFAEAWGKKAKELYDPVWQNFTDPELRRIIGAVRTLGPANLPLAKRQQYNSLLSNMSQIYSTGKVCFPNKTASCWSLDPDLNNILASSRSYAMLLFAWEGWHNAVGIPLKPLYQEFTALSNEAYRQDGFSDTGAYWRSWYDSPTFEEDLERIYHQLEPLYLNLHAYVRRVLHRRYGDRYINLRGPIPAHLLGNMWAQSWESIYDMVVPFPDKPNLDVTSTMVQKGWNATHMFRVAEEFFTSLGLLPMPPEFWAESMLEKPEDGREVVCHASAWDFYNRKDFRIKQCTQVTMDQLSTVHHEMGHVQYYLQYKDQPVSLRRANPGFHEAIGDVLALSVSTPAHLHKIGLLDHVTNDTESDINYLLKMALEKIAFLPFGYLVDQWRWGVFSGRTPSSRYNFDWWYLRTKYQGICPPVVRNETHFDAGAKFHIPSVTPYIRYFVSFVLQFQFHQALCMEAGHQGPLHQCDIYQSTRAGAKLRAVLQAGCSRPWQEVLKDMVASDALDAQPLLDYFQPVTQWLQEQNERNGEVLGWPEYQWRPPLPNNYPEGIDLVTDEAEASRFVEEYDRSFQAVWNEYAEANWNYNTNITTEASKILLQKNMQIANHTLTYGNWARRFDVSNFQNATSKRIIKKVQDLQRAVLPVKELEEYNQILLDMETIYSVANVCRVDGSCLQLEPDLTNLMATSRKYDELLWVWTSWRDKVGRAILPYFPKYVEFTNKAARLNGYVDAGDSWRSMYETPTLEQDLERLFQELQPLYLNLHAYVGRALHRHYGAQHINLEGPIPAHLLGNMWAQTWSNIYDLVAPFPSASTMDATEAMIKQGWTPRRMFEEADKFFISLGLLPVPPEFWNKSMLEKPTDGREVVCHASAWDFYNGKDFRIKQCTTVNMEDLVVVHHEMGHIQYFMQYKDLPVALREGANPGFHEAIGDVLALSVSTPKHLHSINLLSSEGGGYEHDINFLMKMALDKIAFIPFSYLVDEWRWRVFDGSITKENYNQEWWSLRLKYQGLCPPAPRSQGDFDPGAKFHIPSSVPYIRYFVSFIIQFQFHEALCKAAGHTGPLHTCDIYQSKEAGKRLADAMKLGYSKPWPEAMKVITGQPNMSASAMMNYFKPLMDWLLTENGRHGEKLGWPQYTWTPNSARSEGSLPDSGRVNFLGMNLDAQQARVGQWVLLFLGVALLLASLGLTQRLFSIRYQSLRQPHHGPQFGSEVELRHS
Protocol: The angiotensin converting enzyme (ACE) inhibitory property of the compounds is measured in vitro and in vivo. The in vitro assay utilizes rabbit lung extract and a specific tripeptide substrate, hippuryl-L-histidyl-L-leucine being preferred, and follows the method of Cushman et al., Biochem. Pharmacol., 20, 1637-1648 (1971).
In the in vitro assay for angiotensin converting enzyme inhibition utilizing the rabbit lung extract according to the procedure of Cushman et al., Biochem. Pharmacol., 20, 1637-1648 (1971), the following results were obtained: […]

hypertension [3] = settings: cited from earlier work
hypertension [4] = settings: humans with certain forms of hypertension; cited from earlier work
[5] = tested on: spontaneously hypertensive rat; assay: Anti-hypertensive effect in the spontaneously hypertensive rat (systolic pressure, indirect caudal plethysmograph); assay type: in vivo, male); settings: oral, 4 subjects
Protocol: The anti-hypertensive effect of the compounds of the invention is measured in the spontaneously hypertensive rat. In this procedure systolic pressure of male spontaneously hypertensive rats is measured by an indirect technique using the Decker Caudal Plethysmograph or other appropriate sensor. Groups usually consist of 4 or more rats. Drugs are usually administered orally. Pressures are usually read prior to drug administration and at 1.5, 4 and 24 hours thereafter. This schedule may be altered depending upon the behavior of the drug.
This procedure measures the hypotensive effect of the subject compounds in a hypertensive subject using a single dose and measuring the response over a 24 hour period. When administered orally according to this procedure, compounds of the invention produced a significant decrease in blood pressures in doses of 1-50 mg/kg. When used to treat hypertension in warm-blooded animals doses of less than 15 mg/kg./day would be utilized, and preferably doses of less than 5 mg/kg./day. Such effective treatment doses would generally be administered in long-term antihypertensive therapy.

[6] = tested on: vasopressor action of Angiotensin I; assay: In vivo ACE inhibitory activity in the conscious normotensive rat: angiotensin I vasopressor response (Rubin et al.); parameters: species or system rat (Sprague-Dawley, male; settings: oral, 1 mg/kg, 2 hours after administration
Protocol: The in vivo ACE inhibitory activity of the compounds is measured according to the procedure described in Rubin et al., J. Pharmacol. Exp. Ther., 204, 271-280 (1978), which utilizes the conscious normotensive tat as a subject. In this procedure, the jugular vein and carotid artery cannulae are placed in an etheranesthetized, normotensive, male, Sprague-Dawley rat for injection or oral dosage of compounds and direct recording of systemic arterial pressure, respectively. The blood pressure responses to I. V. injections of angiotensin I (500 ng/kg.), angiotensin II (100 ng/kg.) and bradykinin (10 μg/kg.) are recorded and compared with identical doses administered at various time intervals after oral dosing of a prospective angiotensin converting enzyme inhibitor. An angiotensin converting enzyme inhibitor would not be expected necessarily to lower arterial pressure in the normotensive rat, but would be expected to block angiotensin I pressor responses without grossly altering angiotensin II responses. Additionally,the vasodepressor response to bradykinin would be expected to be augmented since angiotensin converting enzyme is known to inactivate bradykinin normally.

Row | Compound | potency as inhibitors of angiotensin converting enzyme [1] | IC50 [2] | oral activity as an anti-hypertensive agent (hypertension [3]) | other results
1 | Pyr-Lys-Trp-Ala-Pro ([pGlu]KWAP) [BPP5a] | most potent | – | – | –
2 | CCOC(=O)[C@@H](CCc1ccccc1)N[C@@H](C)C(=O)N1c2ccccc2C[C@H]1C(=O)O [Example 56, (-)-(S)-1-[(2S)-2-[[(1R)-1-(Ethoxycarbonyl)-3-Phenylpropyl]Amino]-1-Oxopropyl]-2,3-Dihydro-1H-Indole-2-Carboxylic Acid, Maleate] | – | 900 nM | – | –
3 | C[C@H](CS)C(=O)N1CCCC1C(=O)O (stereo in doubt) [D-3-mercapto-2methylpropanoyl-L-proline] | – | – | effective when administered orally | effectiveness among the proline derivatives (hypertension [3]; in vivo): most effective
4 | Pyr-Trp-Pro-Arg-Pro-Gln-Ile-Pro-Pro (WPRPQIPP; N-terminal pyroglutamate; printed: Trp-Pro-Arg-Pro-Gln-Ile-Pro-Pro) [BPP9a] | most potent | – | not orally active | anti-hypertensive effect in clinical studies (hypertension [4]): effective anti-hypertensive agent
5 | C[C@H](N)C(=O)N1c2ccccc2C[C@H]1C(=O)O [Example 54, (S)-1-[(S)-2-Amino-Oxopropyl]-2,3-Dihydro-1H-Indole-2-Carboxylic Acid] | – | 3100 nM | – | –
6 | CCOC(=O)[C@H](CCc1ccccc1)N[C@@H](C)C(=O)N1c2ccccc2C[C@H]1C(=O)O.O=C(O)/C=C\C(=O)O [Example 55, (-)-(S)-1-[(2S)-2-[[(1S)-1-(Ethoxycarbonyl)-3-Phenylpropyl]Amino]-1-Oxopropyl]-2,3-Dihydro-1H-Indole-2-Carboxylic Acid, Maleate] | – | 118 nM | – | Reduction of Systolic BP ([5]; 2.5 mg/kg): -13 mm. Hg.; Reduction of Systolic BP ([5]; 5.0 mg/kg): -23 mm. Hg.; Reduction of Systolic BP ([5]; 10.0 mg/kg): -33 mm. Hg.; inhibition of the vasopressor action of Angiotensin I [6]: 46%
